We go through 2 molecules from patent publication US8569511B2, “Substituted 3-(1H-benzo[d]imidazol-2-yl)-1H-indazole analogs as inhibitors of the PDK1 kinase” (University of Utah Research Foundation, priority 2011, dated 2013).

Read-outs that look alike come from different tables or passages of the source.

The subject of one data set is AN3-CA cells. As to the kind of experiment: Cell viability assay (ATP-lite). The class given is cell-based. As to the method:
(§1) AN3-CA (PTEN-deficient), RL95-2 (PTEN-deficient), and HEC-1A (PTEN-wild type) cells were plated in 45 μl of RPMI-1640 media supplemented with 10% FBS and 1% Pen/Strep at a density of 1000 cells per well in white 384-well plates. Cells were allowed to attach by incubation overnight at 37° C. and 5% CO2. Test compounds were diluted to 10× concentrations in RPMI-1640 media (containing 3% DMSO) and 5 μl 1 of these dilutions were added in triplicate to the appropriate wells containing the cells. The plates containing the drug-treated cells and appropriate controls were incubated for 96 hours. At the end of the incubation, 40 μl of ATP-lite (PerkinElmer, Inc., Waltham, Massachussetts) reagent were added to each well and luminescence signal was measured on an EnVision microplate reader.
Alternatively, AN3-CA, RL95-2, HEC-1A endometrial cancer cell lines were plated at a density of 2000 cells per well in a 96 well culture plate in 45 μl of cell culture media and incubated overnight. The following day, test compounds were added to the cells in 5 μl of serum-free media to generate final concentrations of 10, 3, 1, 0.3, 0.1, 0.03, 0.01, or 0.003 μM. Vehicle treated controls were also included and each condition was applied in quadruplicate. Following 96 hours of incubation, 35 μL of ATP-lite (PerkinElmer) reagent was added each well and allowed to react for 10 minutes. Plate was read on a Envision 2104 MultiLabel reader (PerkinElmer).
IC50 values are determined using GraphPad Prism 5 software. The data were entered as an X-Y plot into the software as percent inhibition for each concentration of the drug. The concentration values of the drug were log transformed and the nonlinear regression was carried out using the “sigmoidal dose-response (variable slope)” option within the GraphPad software to model the data and calculate IC50 values.

A short description of data set [1]: Mouse xenograft study, body weight. The class given is in vivo, athymic nude mice. Conditions: 50 mg/kg IP, daily Monday through Friday for two weeks. On the procedure: The in vivo effects of compounds were determined in a mouse subcutaneous xenograft tumor model wherein AN3-CA cells were implanted subcutaneously into the hind flank of athymic nude mice. Briefly, seven-week-old mice were injected with 2×10^6 AN3-CA cells on the right hind flank. […] The vehicle for these studies was 20% DMSO, 20% cremophor, and 60% water. The test compound was administered on daily schedule (Monday through Friday) for two weeks at a concentration of 50 mg/kg by intraperitoneal (“IP”) injection. The mice were sacrificed and the tumors were excised for western blot analysis. Tumor volume was determined using the formula L×W2×0.5, where L is the longest length, and W is the shortest length. Tumor volume and body weight was measured twice a week.
The study was carried out as described above for 2,2-difluoro-N-(3-(5-morpholino-1H-benzo[d]imidazol-2-yl)-1H-indazol-5-yl)cyclopropanecarboxamide, except that the test compound used was 2,2-difluoro-N-(3-(5-(2-methylmorpholino)-1H-benzo[d]imidazol-2-yl)-1H-indazol-5-yl)cyclopropanecarboxamide. Data are shown in FIGS. 10A and 10B for the effect of the compound on tumor volume and body weight, respectively.

The target of another data set is PDK1 (Homo sapiens (Human), UniProt O15530). As to the kind of experiment: PDK1 fluorometric activity assay performed by Life Technologies. Format: biochemical. To be noted: for IC50: fluorometric assay performed by Life Technologies (Table IV), read-out: PDK1 Kinase assays (IC50). As to the method: PDK1 biochemical activity was measured by a fluorometric assay performed by Life Technologies (Grand Island, N.Y.). The assay conditions for PDK1 are as follows. The 2×PDK1/Ser/Thr-07 mixture is prepared in 50 mM Tris pH 8.5, 0.01% BRIJ-35, 10 mM MgCl2, 1 mM EGTA, 0.02% NaN3.
The kinase specificity was measured using fluorometric assays performed by Life Technologies (Grand Island, N.Y.). Assay conditions vary for each kinase and are available from Life Technologies, Grand Island, NY. For example, the assay conditions for PDK1 are as follows. The 2×PDK1/Ser/Thr-07 mixture is prepared in 50 mM Tris pH 8.5, 0.01% BRIJ-35, 10 mM MgCl2, 1 mM EGTA, 0.02% NaN3.

In a further data set the test system is HS578T cell line. As to the kind of experiment: Cell viability after PTEN shRNA knockdown. The class given is cell-based. To be noted: Homo sapiens, Hs-578T. As to the method:
The lentiviral particles with PTEN shRNA or scrambled siRNA (ssi RNA) were purchased from Thermo Scientific. The cells were seeded in a 24-well plate and incubated overnight in RPMI full media. The media was removed and the cells were transfected with either siRNA or ssiRNA particles in serum/antibiotic free RPMI media. Six hours post-transduction, 1 ml of full media (serum plus penicillin/streptomycin) was added and the cells were incubated overnight. At 48 hours post-transduction fresh media with puromycin was added. The media was replaced with fresh puromycin containing media every 2 days. qPCR and western blot analysis was used to evaluate the level of PTEN knockdown.
as §1
In the figures, cell viability is shown as “Toxicity” and the cell viability assay was carried out as described above.

Data set [2] in a line: Pharmacokinetics in mice (iv and po). The class given is in vivo. Conditions: for Vd: read-out: Vss. As to the method: Pharmacokinetic parameters were determined by dosing mice by oral (“po”) and intravenous (“iv”) administration of two representative disclosed compounds.
The vehicle was 1% DMSO, 10% ethanol, 35% PEG 400, and the balance H2O. Blood was collected (about 50 μl per individual animal) into heparin-containing collection tubes, and cells were removed by centrifugation. The concentration of compound was determined at the indicated time points for each sample using mass spectrometry. […] PK parameters were calculated using WinNonLin (Pharsight Products, Saint Louis, Mo.). […] The level detected at 0.08 hr was 9 ng/ml±5.0 ng/ml.
Vehicle, sample collection and analysis is as described above.

Setting [3] is: Homo sapiens, AN3-CA, AN3-CA (PTEN and PIK3R1 mutations), read-out: Cell Viability IC50 AN3-CA.
[4] abbreviates: PTEN knockdown shRNA, read-out: IC50 for cell viability, PTEN knockdown shRNA cells.
The mark [5] stands for this setting: mouse, plasma, po (Table VIII, dose not given).

Chain of PDK1 (O15530 whole entry): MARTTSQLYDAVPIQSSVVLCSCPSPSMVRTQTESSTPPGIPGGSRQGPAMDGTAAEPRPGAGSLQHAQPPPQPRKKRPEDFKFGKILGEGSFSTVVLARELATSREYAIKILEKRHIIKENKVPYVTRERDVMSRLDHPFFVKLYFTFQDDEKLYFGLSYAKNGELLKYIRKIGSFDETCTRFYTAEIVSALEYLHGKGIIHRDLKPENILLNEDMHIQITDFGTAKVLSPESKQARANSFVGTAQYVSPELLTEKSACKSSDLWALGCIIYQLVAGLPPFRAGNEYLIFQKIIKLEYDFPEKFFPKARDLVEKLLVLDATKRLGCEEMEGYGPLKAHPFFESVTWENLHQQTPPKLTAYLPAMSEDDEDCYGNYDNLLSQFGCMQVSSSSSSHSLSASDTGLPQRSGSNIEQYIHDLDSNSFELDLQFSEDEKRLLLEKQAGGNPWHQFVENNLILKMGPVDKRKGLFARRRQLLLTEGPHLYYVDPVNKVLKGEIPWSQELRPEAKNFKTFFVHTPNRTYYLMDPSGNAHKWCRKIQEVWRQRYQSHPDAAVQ

Take `O=C(Nc1ccc2[nH]nc(-c3nc4ccc(N5CCOCC5)cc4[nH]3)c2c1)C1CC1(F)F` (stereo not shown) [Compound 1, 2,2-difluoro-N-(3-(5-morpholino-1H-benzo[d]imidazol-2-yl)-1H-indazol-5-yl)cyclopropanecarboxamide]: in the data set with AN3-CA cells (FIG. 6), the “Potency in cell viability assay, AN3-CA (in words)” value was “most potent”. Besides, the IC50 with AN3-CA cells (setting [3]) was 0.027 µM. Also, in the data set on AN3-CA cells (Homo sapiens, AN3-CA, Table VI panel, mutation PTEN, PIK3R1, read-out: IC50 cell viability, AN3-CA), the IC50 was 0.048 µM. In addition, the IC50 in the data set with AN3-CA cells (Homo sapiens, AN3-CA, read-out: IC50 cell viability, AN3-CA cells) was 0.027 µM. In data set [1], the “Effect on body weight” value is recorded as “did not appear to cause any body weight loss”. In addition, on PDK1, the half-inhibitory concentration (IC50) stood at 0.08 µM. For the same molecule, on PDK1 (profiling at 500 nM, FIG. 8), the “Kinase profiling activity against PDK1 (in words)” value is listed as “good activity”. In addition, in the data set on HS578T cell line (setting [4]), the half-inhibitory concentration (IC50) was found to be 1.2 µM. Moreover, in data set [2] (mouse, plasma, iv, 5.0 mg/kg), the AUC(0-t) was 516 ng·h/mL, the concentration peaked (Cmax) at 1840 ng/mL, the Tmax was 4.8 min and the clearance came to 161 mL/min/kg. Besides, in data set [2] (mouse, plasma, iv, 5.0 mg/kg), the half-life was 24 min and the Vd amounted to 1.6 L/kg. Besides, in data set [2] (setting [5]), the maximum concentration (Cmax) worked out at 9 ng/mL and the Tmax amounted to 15 min. In addition, the concentration at 0.08 hr in data set [2] (mouse, plasma, po, at 0.08 hr, read-out: Level detected after oral administration) turned out to be 9 ng/mL. The “Level after oral administration (in words)” value in data set [2] (po, after 0.08 hr) was “below the limit of detection”.
With `CC1CN(c2ccc3nc(-c4n[nH]c5ccc(NC(=O)C6CC6(F)F)cc45)[nH]c3c2)CCO1` (stereo not shown) [Compound 2, 2,2-difluoro-N-(3-(5-(2-methylmorpholino)-1H-benzo[d]imidazol-2-yl)-1H-indazol-5-yl)cyclopropanecarboxamide], the half-maximal inhibitory concentration (IC50) with AN3-CA cells (AN3-CA (PTEN and PIK3R1 mutations), listed as Test Compound 2, read-out: Cell Viability IC50 AN3-CA) is 0.023 µM. In the data set on AN3-CA cells (setting [3]), the 50% inhibitory concentration (IC50) is under 0.03 µM. For the same molecule, in data set [1], the “Effect on body weight” value is recorded as “did not appear to cause any body weight loss”. In addition, the IC50 on PDK1 amounted to 0.094 µM. For the same molecule, the IC50 in the data set with HS578T cell line (setting [4]) is 0.8 µM. In addition, the 50% inhibitory concentration (IC50) in the data set on HS578T cell line (control (scrambled) treated cells, read-out: IC50 for cell viability, control treated cells) stood at 2.2 µM. Further, in data set [2] (mouse, plasma, iv, 5.0 mg/kg), the AUC(0-t) was 1280 ng·h/mL, the peak level (Cmax) was 4530 ng/mL, the time of peak concentration (Tmax) was 4.8 min and the clearance turned out to be 65 mL/min/kg. In data set [2] (mouse, plasma, iv, 5.0 mg/kg), the half-life was 24 min and the Vd was found to be 0.63 L/kg. Further, in data set [2] (mouse, plasma, po, 30 mg/kg), the AUC(0-t) was determined as 244 ng·h/mL, the peak concentration (Cmax) was determined as 53 ng/mL, the Tmax came out at 15 min and the bioavailability turned out to be 19%.
